Assay results reported in patent US20240269145A1, “USE OF INDOLE COMPOUND AS INHIBITORS OF FERROPTOSIS” (MITOIMMUNE THERAPEUTICS INC., priority 2023, published 2024).

Tests used:
Format in all cases: cell-based
NIH/3T3 cells = experiment: Cytosolic lipid ROS after erastin, Experimental Example 3-3; details: NIH/3T3, erastin 3 μM, 6 hr; tested 0.1, 1, 10 μM
Procedure: [The source words this procedure for another cell line and says it was used here with some conditions changed.] (§1) Experimental Example 3-1: To confirm the protective effect against cytosolic lipid reactive oxygen species in lung epithelial cells, 2×10^5 MLE-12 cells were dispensed into each well of a 12-well plate and cultured for 18 to 24 hours. Each well was treated with Example Compound 1 and ferrostatin-1, which were diluted so that their final concentration became 0.01, 0.1, 1, and 10 μM, and culture was performed for 15 minutes. Afterwards, the cells were treated so that the final concentration of RSL3 became 1 μM, and cultured for 2 hours. To confirm the inhibitory effect against cytosolic lipid reactive oxygen species, BODIPY™ 581/591 C11 (lipid peroxidation sensor) [Invitrogen™; D3861] was used. According to the manufacturer's experimental method, BODIPY™ 581/591 C11 was diluted in the cell culture medium so that the final concentration became 5 μM, and the cells were treated therewith and allowed to react for 30 minutes to perform fluorescent staining. The MLE-12 cells fluorescently stained with BODIPY™ 581/591 C11 were detached from the 12-well plate using 0.25% Trypsin-EDTA and transferred to a microtube, and the fluorescence (excitation/absorption 500 to 650 nm/510 to 665 nm) was measured using BD FACSLyric™ to calculate the rate of change compared to the control group. […]

ARPE-19 cells = experiment: Cytosolic lipid ROS after RSL3, Experimental Example 3-5; details: ARPE-19, RSL3 0.3 μM, 2 hr
Procedure: [The source words this procedure for another cell line and says it was used here with some conditions changed.] as §1

MLE-12 cells [1] = experiment: Cytosolic ROS (CM-H2DCFDA) after RSL3; details: MLE-12, 1 μM RSL3, 2 hours
Procedure: To confirm the protective effect against cytosolic reactive oxygen species in lung epithelial cells, 2×10^5 MLE-12 cells were dispensed into each well of a 12-well plate and cultured for 18 to 24 hours. Each well was treated with Example Compound 1 and ferrostatin-1, which were diluted so that their final concentration became 0.01, 0.1, 1, and 10 μM, and culture was performed for 15 minutes. Afterwards, the cells were treated so that the final concentration of RSL3 became 1 μM, and cultured for 2 hours. To confirm the inhibitory effect against cytosolic reactive oxygen species, CM-H2DCFDA (general oxidative stress indicator) [Invitrogen™; C6827] was used. According to the manufacturer's experimental method, CM-H2DCFDA was diluted in the cell culture medium so that the final concentration became 5 μM, and the cells were treated therewith and allowed to react for 30 minutes to perform fluorescent staining. The MLE-12 cells fluorescently stained with CM-H2DCFDA were detached from the 12-well plate using 0.25% Trypsin-EDTA and transferred to a microtube, and the fluorescence (excitation/absorption 492 to 495 nm/517 to 527 nm) was measured using BD FACSLyric™ to calculate the rate of change compared to the control group.

H9C2 cells [2] = experiment: Cytosolic iron ion accumulation (FerroOrange, images) after erastin; details: H9C2, erastin 1 μM, 7 hours; Example Compound 1 1 μM, DFO 10 or 100 μM
Procedure: To confirm the inhibitory effect against cytosolic iron ion accumulation in adrenal medulla cells and cardiac cells, 3×10^5 PC-12 cells and H9C2 cells were each dispensed into a 35 mm confocal dish and cultured for 18 to 36 hours. Each well was treated with the Example Compound 1, which was diluted so that the final concentration became 1 μM, and with DFO, which was diluted so that the final concentration became 10 µM and 100 μM, and culture was performed for 20 to 30 minutes. Afterwards, the PC-12 cells and H9C2 cells were each treated with RSL3 and erastin so that their final concentration became 0.3 µM and 1 μM, respectively, and cultured for 1 hour and 7 hours. To confirm the inhibitory effect against cytosolic iron ion accumulation, FerroOrange [DOJINDO; F374] was used. According to the manufacturer's experimental method, FerroOrange was diluted in the cell culture medium so that the final concentration became 1 μM, and the cells were treated therewith. […] The cells fluorescently stained with FerroOrange were observed using a fluorescence microscope [Carl Zeiss; Axio Observer 7] to investigate the change in fluorescence (excitation/absorption 580 nm/543 nm) compared to the control group (RSL3 and erastin untreated group).

MLE-12 cells [3] = experiment: Mitochondrial iron ion accumulation (Mito-FerroGreen, flow cytometry) after RSL3; details: MLE-12, 1 μM RSL3, 8 hours
Procedure: To confirm the inhibitory effect against mitochondrial iron ion accumulation in lung epithelial cells, 2×10^5 MLE-12 cells were dispensed into each well of a 12-well plate and cultured for 18 to 24 hours. Each well was treated with Example Compound 1 and ferrostatin-1, which were diluted so that their final concentration became 0.01, 0.1, 1, and 10 μM, and culture was performed for 15 minutes. Afterwards, the cells were treated so that the final concentration of RSL3 became 1 μM, and cultured for 8 hours. To confirm the inhibitory effect against mitochondrial iron ion accumulation, Mito-FerroGreen [DOJINDO; M489] was used. According to the manufacturer's experimental method, Mito-FerroGreen was diluted in the cell culture medium so that the final concentration became 1 μM, and the cells were treated therewith and allowed to react for 30 minutes to perform fluorescent staining. The MLE-12 cells fluorescently stained with Mito-FerroGreen were detached from the 12-well plate using 0.25% Trypsin-EDTA and transferred to a microtube, and the fluorescence (excitation/absorption 505 nm/535 nm) was measured using BD FACSLyric™ to calculate the rate of change compared to the control group.

H9C2 cells [4] = experiment: Cell death protection by real-time imaging after erastin; details: H9C2, erastin 1 μM, compound 0.1 μM, imaged every 3 hours for 24 hours
Procedure: To confirm a cell death protection effect on cardiac cells through images, 2.5×10^5 H9C2 cells were dispensed into each confocal dish and cultured for 2 days. Each dish was treated with Example Compound 1 and ferrostatin-1, which were diluted to a final concentration of 0.1 μM, and culture was performed for 20 minutes. Afterwards, the cells were treated with erastin so that the final concentration became 1 μM, and images were taken using real-time imaging equipment [Nanolive; CX-A] every 3 hours for 24 hours to confirm changes in the H9C2 cells.

SMILES: O=S1(=O)CCN(Cc2cc(NC3CCOCC3)c3[nH]c(-c4ccccc4)cc3c2)CC1 [Example 1, 5-[(1,1-dioxido-4-thiomorpholinyl)methyl]-2-phenyl-N-(tetrahydro-2H-pyran-4-yl)-1H-indole-7-amine]
- concentration at which cytosolic lipid reactive oxygen species were decreased (NIH/3T3 cells): 0.1 µM
- concentration at which lipid reactive oxygen species are inhibited (ARPE-19 cells): 0.01 µM
- concentration at which cytosolic reactive oxygen species were significantly decreased (MLE-12 cells [1]): 0.01 µM
- cytosolic iron ion accumulation (images) (H9C2 cells [2]): decrease was confirmed
- concentration at which mitochondrial iron ion accumulation was significantly decreased (MLE-12 cells [3]): 0.01 µM
- time for which cell death was inhibited (H9C2 cells [4]): up to 24 hours

SMILES: CCOC(=O)c1ccc(NC2CCCCC2)c(N)c1 [Fer-1, ferrostatin-1, reference compound]
- concentration at which cytosolic lipid reactive oxygen species were decreased (NIH/3T3 cells): 10 µM
- concentration at which cytosolic reactive oxygen species were significantly decreased (MLE-12 cells [1]): 0.1 µM
- concentration at which mitochondrial iron ion accumulation was significantly decreased (MLE-12 cells [3]): 0.1 µM
- time for which cell death was inhibited (H9C2 cells [4]): up to 18 hours
- time from which cell death was observed (H9C2 cells [4]): ≥ 21 h
